The target of one test is human DGKα (Homo sapiens (Human), UniProt P23743). The experiment in a line: biochemical. The conditions noted are these: detergent/lipid micelle substrate; read-out: DGKα IC50. The procedure, abridged:
(§1)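 Enzymes were baculovirus/Sf9 full-length human DGKα or DGKζ with His tag. The substrate was PS/DAG in octyl glucoside micelles, in MOPS pH 7.5 buffer with NaCl, MgCl2, CaCl2 and DTT.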

Test [1] concerns pre-activated CD4 T cells and Raji cells. The experiment in a line: Raji CD4 T Cell IL2 Assay. To be noted: Homo sapiens, Raji. The class given is cell-based.
The next test deals with human DGKζ (Homo sapiens (Human), UniProt Q13574). As to the kind of experiment: DGKζ assay (detergent/lipid micelle substrate). The class given is biochemical. To be noted: detergent/lipid micelle substrate; read-out: DGKζ IC50. The procedure, abridged: as §1

By IC50 is commonly meant the concentration that inhibits the measured activity by half.

Chain of human DGKζ (Q13574 other isoform, or with tags, fused parts or gaps): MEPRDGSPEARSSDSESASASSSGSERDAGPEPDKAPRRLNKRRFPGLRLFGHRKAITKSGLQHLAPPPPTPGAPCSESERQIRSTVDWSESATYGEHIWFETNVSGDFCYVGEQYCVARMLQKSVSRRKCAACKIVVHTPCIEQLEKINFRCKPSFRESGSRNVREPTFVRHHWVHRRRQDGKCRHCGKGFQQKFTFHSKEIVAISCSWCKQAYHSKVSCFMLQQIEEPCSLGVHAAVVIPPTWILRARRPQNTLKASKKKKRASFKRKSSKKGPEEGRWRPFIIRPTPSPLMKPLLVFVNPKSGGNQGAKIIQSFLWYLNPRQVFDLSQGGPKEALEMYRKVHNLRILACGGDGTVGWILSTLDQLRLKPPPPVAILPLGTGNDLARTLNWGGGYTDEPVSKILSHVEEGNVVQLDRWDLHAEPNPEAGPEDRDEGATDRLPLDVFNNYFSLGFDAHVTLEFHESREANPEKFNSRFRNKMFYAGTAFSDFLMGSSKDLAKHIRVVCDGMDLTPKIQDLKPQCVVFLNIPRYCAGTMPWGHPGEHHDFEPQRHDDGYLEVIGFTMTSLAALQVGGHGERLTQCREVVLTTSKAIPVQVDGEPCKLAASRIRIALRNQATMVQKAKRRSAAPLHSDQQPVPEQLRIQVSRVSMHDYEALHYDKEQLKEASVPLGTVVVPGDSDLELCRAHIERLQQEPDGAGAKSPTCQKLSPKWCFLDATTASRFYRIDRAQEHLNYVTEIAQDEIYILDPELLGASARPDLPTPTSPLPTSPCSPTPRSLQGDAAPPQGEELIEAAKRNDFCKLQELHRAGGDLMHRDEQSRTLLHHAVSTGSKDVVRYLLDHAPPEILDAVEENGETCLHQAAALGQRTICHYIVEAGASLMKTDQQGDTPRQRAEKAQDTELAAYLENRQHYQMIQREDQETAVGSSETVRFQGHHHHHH
Chain of human DGKα (P23743 other isoform, or with tags, fused parts or gaps): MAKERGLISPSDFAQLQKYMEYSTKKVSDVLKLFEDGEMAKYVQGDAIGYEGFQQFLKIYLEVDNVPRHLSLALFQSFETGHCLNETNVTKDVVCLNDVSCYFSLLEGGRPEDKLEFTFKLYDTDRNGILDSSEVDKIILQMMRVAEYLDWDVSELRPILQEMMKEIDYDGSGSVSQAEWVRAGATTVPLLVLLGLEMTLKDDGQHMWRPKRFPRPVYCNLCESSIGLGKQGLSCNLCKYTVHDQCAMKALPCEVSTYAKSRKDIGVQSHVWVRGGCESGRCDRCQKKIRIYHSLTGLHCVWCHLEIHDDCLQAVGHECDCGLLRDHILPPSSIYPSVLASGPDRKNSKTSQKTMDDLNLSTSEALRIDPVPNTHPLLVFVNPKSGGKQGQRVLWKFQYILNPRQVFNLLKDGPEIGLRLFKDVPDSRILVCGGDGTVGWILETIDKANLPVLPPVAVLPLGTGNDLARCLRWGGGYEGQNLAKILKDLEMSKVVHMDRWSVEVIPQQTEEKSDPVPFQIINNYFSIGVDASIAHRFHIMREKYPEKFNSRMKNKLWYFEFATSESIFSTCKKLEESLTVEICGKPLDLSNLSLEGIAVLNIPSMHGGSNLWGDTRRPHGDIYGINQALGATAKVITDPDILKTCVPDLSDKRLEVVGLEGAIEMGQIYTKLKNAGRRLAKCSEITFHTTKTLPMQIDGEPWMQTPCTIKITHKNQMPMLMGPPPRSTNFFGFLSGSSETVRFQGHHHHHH

As to `COc1cccc(CN2CCN(c3c(C#N)c(=O)n(C)c4ccc(Br)nc34)CC2)c1O` [Example 368, 6-bromo-4-{4-[(2-hydroxy-3-methoxyphenyl)methyl]piperazin-1-yl}-1-methyl-2-oxo-1,2-dihydro-1,5-naphthyridine-3-carbonitrile], the 50% inhibitory concentration (IC50) at human DGKα was 0.4 µM; in test [1], > 100 µM; on human DGKζ, > 240 µM.
In the case of `Cn1c(=O)c(C#N)c(N2CCN(Cc3cc(OC(F)(F)F)ccc3O)CC2)c2nc(Cl)ccc21` [Example 369, 6-chloro-4-(4-{[2-hydroxy-5-(trifluoromethoxy)phenyl]methyl}piperazin-1-yl)-1-methyl-2-oxo-1,2-dihydro-1,5-naphthyridine-3-carbonitrile], the IC50 at human DGKα is 0.16 µM; in test [1], > 100 µM; at human DGKζ, > 240 µM.
As for `Cn1c(=O)c(C#N)c(N2CCN(Cc3cc(Cl)ccc3O)CC2)c2nc(Cl)ccc21` [Example 370, 6-chloro-4-{4-[(5-chloro-2-hydroxyphenyl)methyl]piperazin-1-yl}-1-methyl-2-oxo-1,2-dihydro-1,5-naphthyridine-3-carbonitrile], the IC50 is 0.17 µM on human DGKα, > 100 µM in test [1] and > 240 µM on human DGKζ.
Turning to `COc1cccc(CN2CCN(c3c(C#N)c(=O)n(C)c4ccc(Cl)nc34)CC2)c1O` [Example 371, 6-chloro-4-{4-[(2-hydroxy-3-methoxyphenyl)methyl]piperazin-1-yl}-1-methyl-2-oxo-1,2-dihydro-1,5-naphthyridine-3-carbonitrile], the IC50 is 0.23 µM at human DGKα, > 100 µM in test [1] and 170 µM at human DGKζ.
Regarding `Cn1c(=O)c(C#N)c(N2CCN(Cc3ccc(C(F)(F)F)c(F)c3)CC2)c2nc(Cl)ccc21` [Example 375, 6-chloro-4-(4-{[3-fluoro-4-(trifluoromethyl)phenyl]methyl}piperazin-1-yl)-1-methyl-2-oxo-1,2-dihydro-1,5-naphthylidine-3-carbonitrile], the IC50 at human DGKα was 1.6 µM; in test [1], > 100 µM; at human DGKζ, > 240 µM.
The corresponding values for `Cn1c(=O)c(C#N)c(N2CCN(Cc3ccc(Cl)cc3)CC2)c2nc(Cl)ccc21` [Example 417, 6-chloro-4-{4-[(4-chlorophenyl)methyl]piperazin-1-yl}-1-methyl-2-oxo-1,2-dihydro-1,5-naphthyridine-3-carbonitrile] are 0.25 µM, 0.15 µM and > 240 µM.
`Cn1c(=O)c(C#N)c(N2CCN(C3(c4ccc(F)cc4)CC3)CC2)c2nc(Cl)ccc21` [Example 421, 6-chloro-4-{4-[1-(4-fluorophenyl)cyclopropyl]piperazin-1-yl}-1-methyl-2-oxo-1,2-dihydro-1,5-naphthyridine-3-carbonitrile]: the IC50 at human DGKα was 69 µM; in test [1], 2.8 µM; at human DGKζ, > 240 µM.
The corresponding values for `Cc1ccc2c(n1)c(N1CCN(C(c3ccc(F)cc3)c3ccc(F)cc3)CC1)cc(=O)n2C` [Example 427, 4-{4-[bis(4-fluorophenyl)methyl]piperazin-1-yl}-1,6-dimethyl-1,2-dihydro-1,5-naphthyridin-2-one] are 150 µM, 2.4 µM and > 240 µM.

The values are drawn from patent US11866430B2, “Naphthyridinone compounds useful as T cell activators” (priority 2018, dated 2024).
